Here are results for 9 compounds from US20150315146A1, “USE OF SUBSTITUTED 1-(ARYL ETHYNYL)-, 1-(HETEROARYL ETHYNYL)-, 1-(HETEROCYCLYL ETHYNYL)- AND 1-(CYCLOALKENYLETHYNYL)-BICYCLOALKANOLS AS ACTIVE AGENTS AGAINST ABIOTIC PLANT STRESS” (BAYER CROPSCIENCE AG, priority 2012, published 2015).

Common to all, as to assay: Drought stress test on potted crop plants in greenhouse, spray application, efficacy from damage values
Type in all cases: in vivo

The test system of one assay is Brassica napus (BRSNS). The note with it: spray at 600 l/ha water, averages from one to three trials. The method, then: (§1) Seeds of monocotyledonous and dicotyledonous crop plants were laid out in sandy loam in wood-fiber pots, covered with soil or sand and cultivated in a greenhouse under good growth conditions. The test plants were treated at the early leaf stage (BBCH10-BBCH13). To assure uniform water supply before commencement of stress, the potted plants were supplied with water by dam irrigation prior to substance application. The compounds according to the invention, formulated in the form of wettable powders (WP), were sprayed onto the green parts of the plants as an aqueous suspension at an equivalent water application rate of 600 l/ha with addition of 0.2% wetting agent (e.g. agrotin). Substance application was followed immediately by stress treatment of the plants. For this purpose, the pots were transferred into plastic inserts in order to prevent them from subsequently drying out too quickly. Drought stress was induced by gradual drying out under the following conditions: “Day”: 14 hours with illumination at 26° C. “Night”: 10 hours without illumination at 18° C. The duration of the respective stress phases was guided mainly by the state of the untreated, stressed control plants and thus varied from crop to crop. It was ended (by re-irrigating and transfer to a greenhouse with good growth conditions) as soon as irreversible damage was observed on the untreated, stressed control plants. In the case of dicotyledonous crops, for example oilseed rape and soya, the duration of the drought stress phase varied between 3 and 6 days, in the case of monocotyledonous crops, for example wheat, barley or corn, between 6 and 11 days. The end of the stress phase was followed by an approx. 5-7-day recovery phase, during which the plants were once again kept under good growth conditions in a greenhouse. In order to rule out any influence of the effects observed by any fungicidal or insecticidal action of the test compounds, it was additionally ensured that the tests proceeded without fungal infection or insect infestation. After the recovery phase had ended, the intensities of damage were analyzed in visual comparison to untreated, unstressed controls of the same age. The intensity of damage was first recorded as a percentage (100%=plants have died, 0%=like control plants). These values were then used to calculate the efficacy of the test compounds (=percentage reduction in the intensity of damage as a result of substance application) by the following formula: [formula] EF: efficacy (%) DVus: damage value of the untreated, stressed control DVts: damage value of the plants treated with test compound In each trial, 3 pots per crop and dosage were treated and evaluated; the resulting efficacies are thus averages. The values in tables A-1 to A-3 below are again averages from one to three independent trials. BRSNS=Brassica napus TRZAS=Triticum aestivum ZEAMX=Zea mays

The subject of the next assay is Zea mays (ZEAMX). The settings on record: percentage reduction in the intensity of damage. The method, then:
as §1

The subject of assay [1] is Triticum aestivum (TRZAS). The note with it: topical, percentage reduction in the intensity of damage, read-out: EF (TRZAS) efficacy; for pest or weed control at 250 g/ha: dosage 250 g/ha. The method, then:
as §1

For `CC12CCC(C1)C(C)(C)C2(O)C#Cc1ccccc1NS(C)(=O)=O` (stereo not drawn) [I.1-88], in the assay on Brassica napus (BRSNS) (dosage 250 g/ha), the “EF (BRSNS): efficacy = percentage reduction in the intensity of damage as a result of substance application” value was greater than 5%.
Consider `COC(=O)c1ccccc1C#CC1(O)C(C)CCC2C1C2(C)C` (stereo not drawn) [I.35-26], for which, in the assay on Zea mays (ZEAMX) (dosage 250 g/ha), the “EF (ZEAMX) efficacy” value is listed as greater than 5%. The pest or weed control at 250 g/ha in assay [1] is greater than 5%.
`CC12CCC(C1)C(C)(C)C2(O)C#Cc1ccccc1CC#N` (stereo not drawn) [I.1-74]: in the assay on Brassica napus (BRSNS) (dosage 250 g/ha), the “EF (BRSNS): efficacy = percentage reduction in the intensity of damage as a result of substance application” value is greater than 5%. Also, the “EF (ZEAMX) efficacy” value with Zea mays (ZEAMX) (dosage 250 g/ha) was greater than 5%. In addition, the pest or weed control at 250 g/ha in assay [1] was greater than 5%.
Take `CC12CCC(C1)C(C)(C)C2(O)C#Cc1ccccc1F` (stereo not drawn) [I.1-1]: in the assay with Brassica napus (BRSNS) (dosage 25 g/ha), the “EF (BRSNS): efficacy = percentage reduction in the intensity of damage as a result of substance application” value is greater than 5%. Also, the “EF (ZEAMX) efficacy” value with Zea mays (ZEAMX) (dosage 250 g/ha) was greater than 5%. Besides, the pest or weed control at 250 g/ha in assay [1] is greater than 5%.
For `COC(=O)c1cc(C)ccc1C#CC1(O)CC2CCC1C2` (stereo not drawn) [I.21-33], in the assay with Brassica napus (BRSNS) (dosage 250 g/ha), the “EF (BRSNS): efficacy = percentage reduction in the intensity of damage as a result of substance application” value is greater than 5%. The “EF (ZEAMX) efficacy” value with Zea mays (ZEAMX) (dosage 250 g/ha) is recorded as greater than 5%. Also, in assay [1], the pest or weed control at 250 g/ha was greater than 5%.
Take `COC(=O)c1ccccc1C#CC1(O)C2(C)CCC(C2)C1(C)C` (stereo not drawn) [I.1-116]: the “EF (BRSNS): efficacy = percentage reduction in the intensity of damage as a result of substance application” value with Brassica napus (BRSNS) (dosage 25 g/ha) is recorded as greater than 5%. In addition, the “EF (ZEAMX) efficacy” value with Zea mays (ZEAMX) (dosage 25 g/ha) is given as greater than 5%. Further, the pest or weed control at 250 g/ha in assay [1] was greater than 5%.
Regarding `COC(=O)c1ccccc1C#CC1(O)C2CC3CC(C2)CC1C3` (stereo not drawn) [I.19-30], in the assay with Brassica napus (BRSNS) (dosage 25 g/ha), the “EF (BRSNS): efficacy = percentage reduction in the intensity of damage as a result of substance application” value was greater than 5%. Further, the pest or weed control at 250 g/ha in assay [1] was greater than 5%.
Regarding `CC(=O)Oc1ccccc1C#CC1(O)C2(C)CCC(C2)C1(C)C` (stereo not drawn) [I.1-79], in the assay with Brassica napus (BRSNS) (dosage 250 g/ha), the “EF (BRSNS): efficacy = percentage reduction in the intensity of damage as a result of substance application” value is recorded as greater than 5%. Besides, in the assay on Zea mays (ZEAMX) (dosage 25 g/ha), the “EF (ZEAMX) efficacy” value was greater than 5%. For the same compound, in assay [1], the pest or weed control at 250 g/ha was greater than 5%.
As for `COC(=O)c1ccccc1C#CC1(O)C2CCC(C2)C12CC2` (stereo not drawn) [I.29-26], the pest or weed control at 25 g/ha in assay [1] (dosage 25 g/ha) was greater than 5%.
